{"source": "paper PMC2551328", "about": "(Biochemistry, 2008)", "key": {"M.tb PGDH (Native) [1]": {"target": "T1, M.tb PGDH (Native) (Mycobacterium tuberculosis, UniProt P9WNX3)", "T1 sequence (P9WNX3 1-528)": "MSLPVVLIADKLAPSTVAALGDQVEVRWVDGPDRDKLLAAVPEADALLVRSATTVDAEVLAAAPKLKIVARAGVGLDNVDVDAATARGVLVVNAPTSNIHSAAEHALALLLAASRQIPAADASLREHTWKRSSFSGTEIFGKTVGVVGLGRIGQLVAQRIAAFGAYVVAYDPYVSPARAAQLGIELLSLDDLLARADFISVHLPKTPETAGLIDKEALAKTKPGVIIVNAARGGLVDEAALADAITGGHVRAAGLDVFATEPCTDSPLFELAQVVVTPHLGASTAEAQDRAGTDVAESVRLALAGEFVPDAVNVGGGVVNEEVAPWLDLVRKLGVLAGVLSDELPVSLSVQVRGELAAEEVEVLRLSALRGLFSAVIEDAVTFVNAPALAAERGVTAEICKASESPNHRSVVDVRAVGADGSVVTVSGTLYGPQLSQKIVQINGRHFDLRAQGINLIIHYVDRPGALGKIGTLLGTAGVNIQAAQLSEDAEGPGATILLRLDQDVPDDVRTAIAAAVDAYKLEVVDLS", "assay_type": "biochemical"}, "M.tb PGDH": {"target": "T2, M.tb PGDH (Mycobacterium tuberculosis, UniProt P9WNX3)", "T2 sequence (P9WNX3 1-528)": "T1 sequence (P9WNX3 1-528)", "assay_type": "binding"}, "chicken liver PGDH": {"system": "chicken liver PGDH", "settings": "cited from earlier work"}, "E. coli PGDH [2]": {"system": "E. coli PGDH", "settings": "read-out: IC50 for L-serine; cited from earlier work"}, "Human PGDH": {"target": "Human PGDH (Homo sapiens, UniProt O43175)", "sequence (O43175 whole entry)": "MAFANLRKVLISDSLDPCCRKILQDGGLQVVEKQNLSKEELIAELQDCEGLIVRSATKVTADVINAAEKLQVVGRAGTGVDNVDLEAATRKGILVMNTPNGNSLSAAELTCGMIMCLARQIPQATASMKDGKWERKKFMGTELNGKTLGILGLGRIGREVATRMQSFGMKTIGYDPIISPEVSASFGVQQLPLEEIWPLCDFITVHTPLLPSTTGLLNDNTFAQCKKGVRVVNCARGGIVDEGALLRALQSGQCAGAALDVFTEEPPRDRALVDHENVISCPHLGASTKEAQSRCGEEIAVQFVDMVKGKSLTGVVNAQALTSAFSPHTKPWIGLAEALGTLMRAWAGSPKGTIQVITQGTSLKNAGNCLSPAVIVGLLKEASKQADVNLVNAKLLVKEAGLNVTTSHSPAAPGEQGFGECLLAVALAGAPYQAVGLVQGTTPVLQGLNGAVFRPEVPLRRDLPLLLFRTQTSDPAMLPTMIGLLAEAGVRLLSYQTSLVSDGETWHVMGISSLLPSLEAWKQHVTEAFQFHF", "assay": "Serine effect on human PGDH", "assay_type": "biochemical", "settings": "unpublished result"}, "PGDH from C. glutamicum": {"system": "PGDH from C. glutamicum", "settings": "read-out: IC50 (serine); cited from earlier work"}, "PGDH from B. subtilis": {"system": "PGDH from B. subtilis", "settings": "read-out: IC50 (serine); cited from earlier work"}, "rat liver PGDH": {"system": "rat liver PGDH", "settings": "cited from earlier work"}, "M.tb PGDH (Native) [3]": {"target": "T1, M.tb PGDH (Native)", "settings": "read-out: Km (NADH), homotropic positive cooperativity; cited from earlier work"}, "E. coli PGDH [4]": {"system": "E. coli PGDH", "settings": "read-out: Kd (NADH), without cooperativity; cited from earlier work"}}, "note": "Several values for one entry are separate records, joined by “and”; a condition that tells them apart may be missing. Identical values can stand only once. Like-named read-outs stand apart in the source and are kept apart here.", "data": [{"smiles": "O=C(O)C(=O)COP(=O)(O)O", "note": "[HPAP, hydroxypyruvic acid phosphate]", "values": [{"measurement": "Ki", "setting": "M.tb PGDH (Native) [1]", "result": "950 ± 120", "unit": "µM"}, {"measurement": "kcat", "setting": "M.tb PGDH (Native) [1]", "result": "2461 ± 281", "unit": "s⁻¹"}, {"measurement": "Km", "setting": "M.tb PGDH (Native) [1]; pH 7.5", "result": "170 ± 50", "unit": "µM"}, {"measurement": "HPAP binding transient (enzyme fluorescence increase)", "setting": "M.tb PGDH", "result": "rapid binding"}]}, {"smiles": "N[C@@H](CO)C(=O)O", "note": "[L-serine, reference compound]", "values": [{"measurement": "effect of serine on enzyme activity", "setting": "chicken liver PGDH", "result": "no effect"}, {"measurement": "Hill Coefficient", "setting": "M.tb PGDH (Native) [1]", "result": "[…]"}, {"measurement": "IC50", "setting": "E. coli PGDH [2]", "result": "[…]"}, {"measurement": "effect of serine on enzyme activity", "setting": "Human PGDH", "result": "not inhibited"}, {"measurement": "effect of serine on enzyme activity", "setting": "Human PGDH; listed as serine", "result": "not affected"}, {"measurement": "IC50", "setting": "PGDH from C. glutamicum", "result": "~10000", "unit": "µM"}, {"measurement": "IC50", "setting": "PGDH from B. subtilis", "result": "~600", "unit": "µM"}, {"measurement": "effect of serine on enzyme activity", "setting": "rat liver PGDH", "result": "no effect"}]}, {"smiles": "NC(=O)C1=CN([C@@H]2O[C@H](COP(=O)(O)OP(=O)(O)OC[C@H]3O[C@@H](n4cnc5c(N)ncnc54)[C@H](O)[C@@H]3O)[C@@H](O)[C@H]2O)C=CC1", "note": "[NADH]", "values": [{"measurement": "NADH concentration needed to produce a rate equal to the kcat", "setting": "M.tb PGDH", "result": "at least 65 mM"}, {"measurement": "on-rate for NADH binding", "setting": "M.tb PGDH", "result": "occurs within the dead-time of the instrument"}, {"measurement": "on-rates for NADH binding", "setting": "M.tb PGDH", "result": "zero"}, {"measurement": "off-rate of NADH binding", "setting": "M.tb PGDH; pH 7.5", "result": "0.34 sec ^−1 and 0.21 sec ^−1"}, {"measurement": "Kd", "setting": "M.tb PGDH; read-out: Kd for NADH binding", "result": "15 to 30", "unit": "µM"}, {"measurement": "Km", "setting": "M.tb PGDH (Native) [3]", "result": "~50", "unit": "µM"}, {"measurement": "Kd", "setting": "E. coli PGDH [4]", "result": "< 0.5", "unit": "µM"}]}, {"smiles": "O=C(O)C(O)COP(=O)(O)O", "note": "[phosphoglyceric acid, D-3-phosphoglyceric acid]", "values": [{"measurement": "effect on the rate of NADH binding", "setting": "M.tb PGDH", "result": "did not significantly enhance"}]}]}
